Measurements published in ChEMBL document CHEMBL2321708, “Modulators of the GPR119 Receptor for the Treatment of Metabolic Syndrome” (ACS Med Chem Lett, 2013).

How the values were obtained:
Assay type in all cases: functional
[1] = target: T1, Glucose-dependent insulinotropic receptor (Homo sapiens, UniProt Q8TDV5); assay: Agonist activity at human GPR119 by HTRF cAMP assay
T1 sequence (Q8TDV5 whole entry): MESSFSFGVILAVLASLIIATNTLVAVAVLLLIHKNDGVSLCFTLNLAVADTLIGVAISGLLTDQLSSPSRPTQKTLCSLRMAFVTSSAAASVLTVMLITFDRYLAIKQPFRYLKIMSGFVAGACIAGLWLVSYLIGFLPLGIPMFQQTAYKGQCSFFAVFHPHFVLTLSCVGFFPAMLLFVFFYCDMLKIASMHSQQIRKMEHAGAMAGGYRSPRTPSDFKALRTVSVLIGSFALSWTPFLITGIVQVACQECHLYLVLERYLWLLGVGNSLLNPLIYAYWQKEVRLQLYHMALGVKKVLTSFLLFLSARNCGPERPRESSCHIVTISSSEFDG

unidentified [2] = assay: Effect on glucose homeostasis in diabetes model (unknown origin) assessed as release of GIP at 30 mg/kg, […] measured 60 mins post glucose challenge
unidentified [3] = assay: Effect on glucose homeostasis in diabetes model (unknown origin) assessed as release of GIP at 30 mg/kg, po administered intratracheally measured 30 mins before glucose challenge
[4] = Effect on glucose homeostasis in diabetes model (unknown origin) assessed as release of GIP at 3 mg/kg, […] measured 40 mins post glucose challenge
[5] = Effect on glucose homeostasis in diabetes model (unknown origin) assessed as release of GIP at 3 mg/kg, […] measured 20 mins post glucose challenge
unidentified [6] = assay: Effect on glucose homeostasis in diabetes model (unknown origin) assessed as release of GIP at 30 mg/kg, […] measured 20 mins post glucose challenge
unidentified [7] = assay: Effect on glucose homeostasis in diabetes model (unknown origin) assessed as release of GIP at 30 mg/kg, po administered intratracheally measured 120 mins post glucose challenge
[8] = Effect on glucose homeostasis in diabetes model (unknown origin) assessed as release of GIP at 3 mg/kg, […] measured 60 mins post glucose challenge
[9] = Effect on glucose homeostasis in diabetes model (unknown origin) assessed as release of GIP at 3 mg/kg, […] measured 30 mins before glucose challenge
unidentified [10] = assay: Effect on glucose homeostasis in diabetes model (unknown origin) assessed as release of GIP at 30 mg/kg, […] measured 40 mins post glucose challenge
[11] = Effect on glucose homeostasis in diabetes model (unknown origin) assessed as release of GIP at 3 mg/kg, […] measured 120 mins post glucose challenge

`CC(C)c1noc(N2CCC(CO[C@H]3CC[C@H](c4ccc(S(C)(=O)=O)cc4F)CC3)CC2)n1` gave an EC50 [1] of 38 nM.
For `CCc1cnc(N2CCC(CO[C@H]3CC[C@H](c4ccc(S(C)(=O)=O)cc4F)CC3)CC2)nc1`, the Activity (unidentified [2]) was 193.2%, the Activity (unidentified [3]) was 72.2% and the Activity [4] was 250.2%. The Activity [5] was 201.3%, the Activity (unidentified [6]) was 163.5% and the Activity (unidentified [7]) was 107.5%. It also gave an Activity [8] of 262.8%, an Activity [9] of 88.7% and an Activity (unidentified [10]) of 204.2%. The Activity [11] was 163.3%.
Work on `CC(C)(F)c1noc(N2CCC(COC3CC=C(c4ccc(S(C)(=O)=O)cc4)CC3)CC2)n1` (stereo not drawn) yielded an EC50 [1] of 15 nM.
`CC(C)(C)OC(=O)N1CCC(CO[C@H]2CC[C@H](c3cnc(S(C)(=O)=O)cn3)CC2)CC1` gave an EC50 [1] of 707 nM.
